According to article PMC6707612, “Cyclic-di-GMP binds to histidine kinase RavS to control RavS-RavR phosphotransfer and regulates the bacterial lifestyle transition between virulence and swimming” (PLoS Pathogens, 2019):
Several values for one entry are separate records, joined by “and”; a condition that tells them apart may be missing. Equal values may be shown once.

Tests used:
Experiment in all cases: microscale thermophoresis (MST) binding
Details in all cases: 20 nM fluorescein-labelled nucleotide, read-out: dissociation constant (Kd)
[1] = target: RavA (Xanthomonas campestris pv. campestris, UniProt Q8P9A8)
Method: (§1) The interaction between c-di-GMP nucleotides and various proteins was measured by using MST with a fluorescein-labelled c-di-GMP (2′-Fluo-AHC-c-di-GMP, abbreviated as fl-c-di-GMP; 2′-Fluo-AHC-c-di-AMP, fl-c-di-AMP; 2′-Fluo-AHC-cGMP, fl-cGMP; Biolog, Germany). These chemicals contain carboxyfluorescein that has excitation and emission wavelengths of 497 nm and 520 nm, respectively, which can be detected directly by a MST instrument. The experiments were performed on a Monolith NT.115 device using standard treated capillaries (NanoTemper Technologies, Germany). The concentration of the particular protein varied from 0.036 to 150 μM with a 2-fold gradient and the concentration of fl-c-di-GMP was constant at 20 nM. Fluorescence intensity due to thermophoresis was recorded using the blue channel optics of the instrument (λex = 470 ± 15 nm, λem = 520 ± 10 nm) during a 30 s period of infrared laser heating at 80% of the maximum laser power, followed by a 5 s cooling period. Measurements were performed in buffer containing 20 mM HEPES, pH 7.5, 150 mM NaCl, 2 mM MgCl2, 2 mM DTT and 0.05% Tween 20. […]
(§2) Supplementary file ppat.1007952.s007.pdf: S7 Fig c-di-GMP specifically binds to RavS to enhance the RavS-RavR phosphotransfer. […] The interactions of RavS^ΔN, RavA, VgrS and RavR^ΔEAL with fl-c-di-GMP were measured by microscale thermophoresis (MST). Twenty nanomolar fluorescein-labelled nucleotides and increasing concentrations of proteins were co-incubated and potential interactions were measured by MST. The dissociation constant (Kd) was determined to estimate the binding affinity. […]
(§3) (b) RavSΔN specifically interacts with fl-c-di-GMP. The interactions of RavSΔN, RavA, VgrS and RavRΔEAL with fl-c-di-GMP were measured by microscale thermophoresis (MST). Twenty nanomolar fluorescein-labelled nucleotide and increasing concentrations of proteins were co-incubated and potential interactions were measured by MST.
(§4) The dissociation constant (Kd) was determined to estimate the binding affinity. […]

[2] = target: T1, RavS^ΔN (Xanthomonas campestris pv. campestris, UniProt Q8P9A6)
T1 sequence (Q8P9A6 352-697): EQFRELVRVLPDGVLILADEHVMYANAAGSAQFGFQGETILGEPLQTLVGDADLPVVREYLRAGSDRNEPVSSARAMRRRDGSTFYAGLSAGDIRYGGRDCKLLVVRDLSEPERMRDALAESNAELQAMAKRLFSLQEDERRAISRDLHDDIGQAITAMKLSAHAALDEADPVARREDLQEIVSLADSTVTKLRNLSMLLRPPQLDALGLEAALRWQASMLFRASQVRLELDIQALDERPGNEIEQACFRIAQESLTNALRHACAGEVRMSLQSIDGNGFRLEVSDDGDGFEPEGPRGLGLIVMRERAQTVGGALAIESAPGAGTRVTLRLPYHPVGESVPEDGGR
Method: as §1, §2, §3, §4

[3] = target: VgrS (Xanthomonas campestris pv. campestris, UniProt Q8P666)
Method: as §1, §2, §3, §4

RavA, sequence (Q8P9A8 entry or part of it): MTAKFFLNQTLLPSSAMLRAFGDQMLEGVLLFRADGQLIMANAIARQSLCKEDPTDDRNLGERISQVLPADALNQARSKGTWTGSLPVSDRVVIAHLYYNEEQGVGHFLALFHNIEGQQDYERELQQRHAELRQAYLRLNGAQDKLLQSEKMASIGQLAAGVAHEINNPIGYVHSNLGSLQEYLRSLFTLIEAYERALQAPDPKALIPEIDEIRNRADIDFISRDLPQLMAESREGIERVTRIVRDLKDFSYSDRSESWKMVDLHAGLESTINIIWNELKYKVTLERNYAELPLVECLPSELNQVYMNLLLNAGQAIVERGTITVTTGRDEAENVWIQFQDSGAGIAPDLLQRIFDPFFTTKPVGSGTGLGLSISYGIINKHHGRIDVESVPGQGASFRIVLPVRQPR
VgrS, sequence (Q8P666 entry or part of it): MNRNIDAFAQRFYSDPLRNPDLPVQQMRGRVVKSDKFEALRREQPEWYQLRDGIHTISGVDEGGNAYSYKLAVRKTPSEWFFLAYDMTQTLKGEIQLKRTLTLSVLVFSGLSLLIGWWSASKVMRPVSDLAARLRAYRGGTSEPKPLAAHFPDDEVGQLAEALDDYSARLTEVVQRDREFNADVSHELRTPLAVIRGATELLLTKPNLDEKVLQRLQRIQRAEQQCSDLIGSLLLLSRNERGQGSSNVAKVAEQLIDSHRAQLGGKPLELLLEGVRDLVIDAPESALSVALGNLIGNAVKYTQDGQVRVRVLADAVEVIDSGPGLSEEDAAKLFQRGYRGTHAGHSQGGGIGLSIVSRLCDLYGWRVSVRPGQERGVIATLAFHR

SMILES: Nc1nc2c(ncn2[C@@H]2O[C@@H]3COP(=O)(O)O[C@H]4[C@@H](OC(=O)NCCCCCCNC(=O)c5ccc6c(c5)C(=O)OC65c6ccc(O)cc6Oc6cc(O)ccc65)[C@H](n5cnc6c(=O)[nH]c(N)nc65)O[C@@H]4COP(=O)(O)O[C@H]3[C@H]2O)c(=O)[nH]1 [fl-c-di-GMP, 2′-Fluo-AHC-c-di-GMP]
- Kd [1]: 116 µM and > 80 µM
- Kd [2]: 5.62 ± 0.74 µM
- Kd [3]: 88.1 µM and > 80 µM
